Test results reported in patent US20210380548A1, “Fused [1,2,4]Thiadiazine Derivatives Which Act as KAT Inhibitors of the MYST Family” (CTxT Pty Limited, priority 2017, published 2021).

Experiments:
TIP60-KAT5 [1] = target: T1, TIP60-KAT5 (Homo sapiens, UniProt Q92993); experiment: Revised Acetyltransferase Biochemical Assay, KAT5; settings: 10 nM KAT5, 1 μM AcCoA, 100 nM histone H4, 90 min
T1 construct: encoding amino acid residues 2 to 461 (Uniprot Q92993-2) of human KAT5 isoform; made in house; host or cells: E. coli BL21 DE3
T1 sequence (Q92993 2-461 isoform Q92993-2): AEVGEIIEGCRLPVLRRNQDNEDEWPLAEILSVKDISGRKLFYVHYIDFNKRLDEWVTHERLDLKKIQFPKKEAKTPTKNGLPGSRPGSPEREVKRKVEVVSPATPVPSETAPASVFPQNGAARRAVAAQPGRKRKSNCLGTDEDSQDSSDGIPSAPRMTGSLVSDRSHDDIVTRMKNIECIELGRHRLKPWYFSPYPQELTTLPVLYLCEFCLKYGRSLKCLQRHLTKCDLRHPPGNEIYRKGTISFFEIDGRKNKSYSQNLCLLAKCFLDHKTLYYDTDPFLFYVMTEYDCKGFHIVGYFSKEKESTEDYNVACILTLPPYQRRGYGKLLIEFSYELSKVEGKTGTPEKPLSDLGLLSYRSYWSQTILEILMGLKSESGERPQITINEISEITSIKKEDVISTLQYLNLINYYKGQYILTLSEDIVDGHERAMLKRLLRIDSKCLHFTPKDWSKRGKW

MOZ-KAT6A [2] = target: T2, MOZ-KAT6A (Homo sapiens, UniProt Q92794, A567V); experiment: Revised Acetyltransferase Biochemical Assay, KAT6A; settings: Table 8 (MOZ-KAT6A), 1 μM Acetyl coenzyme A
T2 construct: encoding amino acid residues 507 to 778 (Uniprot Q92794-1) of human KAT6A; made in house; host or cells: E. coli BL21 DE3
T2 sequence (Q92794 507-778 A567V limits assumed): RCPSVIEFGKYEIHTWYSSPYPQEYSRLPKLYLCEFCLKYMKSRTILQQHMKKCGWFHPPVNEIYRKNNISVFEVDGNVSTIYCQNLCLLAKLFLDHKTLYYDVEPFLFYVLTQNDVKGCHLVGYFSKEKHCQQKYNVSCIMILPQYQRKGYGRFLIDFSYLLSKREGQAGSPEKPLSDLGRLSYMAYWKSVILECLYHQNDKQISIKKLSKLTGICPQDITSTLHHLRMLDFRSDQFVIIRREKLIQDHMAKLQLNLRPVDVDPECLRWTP

MOZ-KAT6A [3] = target: T2, MOZ-KAT6A; experiment: Acetyltransferase biochemical assay (AlphaScreen), KAT6A; settings: Table 2 (MOZ-KAT6A); 10 μM Acetyl coenzyme A, histone H3.1, 5 nM enzyme
TIP60-KAT5 [4] = target: T1, TIP60-KAT5; experiment: Acetyltransferase biochemical assay (AlphaScreen), KAT5; settings: Table 1 (TIP60-KAT5); 0.4 μM Acetyl coenzyme A, histone H4, 10 nM enzyme
[5] = system: histone H3K23 acetylation (KATE mediated) in U2OS cells; experiment: Histone H3 Lysine 23 Acetylation Biomarker Assay (U2OS); assay type: cell-based; settings: 96 well, 24 hours incubation
Description: Compounds may be tested for their ability to inhibit acetylation of the histone H3K23 marker, which is KATE mediated, in the following assay:
The cell line U2OS was seeded at a density of 9,000 cells per well in 96 well optical quality tissue culture plates in RPMI medium and 10% foetal bovine serum, and allowed to adhere for 24 hours under standard culture conditions (37 degree Celsius, 5% CO2). At the end of this period the medium was aspirated. Compound dilutions prepared in DMSO were added to medium, with negative control wells reserved for treatment with DMSO only and 100% inhibition positive controls receiving a potent inhibitor compound (e.g. cas 2055397-28-7, benzoic acid, 3-fluoro-5-(2-pyridinyl)-, 2-[(2-fluorophenyl)sulfonyl]hydrazide) (Baell, J., Nguyen, H. N., Leaver, D. J., Cleary, B. L., Lagiakos, H. R., Sheikh, B. N., Thomas. T. J., Aryl sulfonohydrazides, WO2016198507A1, 2016) at 10 μM concentration and 200 μL transferred to the cells. After incubation for 24 hours, the cells were fixed with 3.7% formaldehyde in PBS for 20 minutes at room temperature, washed (5×5 minutes) with phosphate buffer saline containing 0.1% Tween 20 and blocked with Odyssey blocking buffer (LI-COR, Lincoln, Nebr.) containing 0.1% TritonX100. Anti-H3K23ac specific antibody (Abcam ab177275) in Odyssey blocking buffer containing 0.1% Tween 20 was added and incubated for 16 hours at 4 degree Celsius. After washing (as above), a secondary antibody labelled with Alexa647 dye (LifeTechnologies) and Hoechst 33342 (1 μg/mL, SigmaAldrich) were added for 1 hour incubation. Plates were washed as previously and read on a PerkinElmer Phenix high content imaging platform. Using a Columbus image analysis pipeline, individual nuclei were located by Hoechst 33342 stain and the acetylation level was calculated from the Alexa647-related intensity in the same area. The resulting mean intensity per cell was directly converted to percent inhibition relative to controls on the same plate and the data fitted against a four-parameter logistic model to determine the 50% inhibitory concentration (IC50).

MOF-KAT8 [6] = target: T3, MOF-KAT8 (Homo sapiens, UniProt Q9H7Z6); experiment: Revised Acetyltransferase Biochemical Assay, KAT8
T3 sequence (Q9H7Z6 177-447): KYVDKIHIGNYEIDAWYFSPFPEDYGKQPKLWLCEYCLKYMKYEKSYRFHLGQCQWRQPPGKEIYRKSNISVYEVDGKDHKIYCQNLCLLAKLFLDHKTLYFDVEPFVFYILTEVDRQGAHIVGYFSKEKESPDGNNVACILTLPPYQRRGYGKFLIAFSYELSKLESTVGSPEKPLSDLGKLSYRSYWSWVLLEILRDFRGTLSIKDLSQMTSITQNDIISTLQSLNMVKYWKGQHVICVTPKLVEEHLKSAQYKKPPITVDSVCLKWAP

QKF-KAT6B = target: T4, QKF-KAT6B (Homo sapiens, UniProt Q8WYB5); experiment: Revised Acetyltransferase Biochemical Assay, KAT6B; settings: 8 nM KAT6B, 1 μM AcCoA, 100 nM histone H3.1, 90 min
T4 construct: purchased SignalChem K315-381BG
T4 sequence (Q8WYB5 whole entry): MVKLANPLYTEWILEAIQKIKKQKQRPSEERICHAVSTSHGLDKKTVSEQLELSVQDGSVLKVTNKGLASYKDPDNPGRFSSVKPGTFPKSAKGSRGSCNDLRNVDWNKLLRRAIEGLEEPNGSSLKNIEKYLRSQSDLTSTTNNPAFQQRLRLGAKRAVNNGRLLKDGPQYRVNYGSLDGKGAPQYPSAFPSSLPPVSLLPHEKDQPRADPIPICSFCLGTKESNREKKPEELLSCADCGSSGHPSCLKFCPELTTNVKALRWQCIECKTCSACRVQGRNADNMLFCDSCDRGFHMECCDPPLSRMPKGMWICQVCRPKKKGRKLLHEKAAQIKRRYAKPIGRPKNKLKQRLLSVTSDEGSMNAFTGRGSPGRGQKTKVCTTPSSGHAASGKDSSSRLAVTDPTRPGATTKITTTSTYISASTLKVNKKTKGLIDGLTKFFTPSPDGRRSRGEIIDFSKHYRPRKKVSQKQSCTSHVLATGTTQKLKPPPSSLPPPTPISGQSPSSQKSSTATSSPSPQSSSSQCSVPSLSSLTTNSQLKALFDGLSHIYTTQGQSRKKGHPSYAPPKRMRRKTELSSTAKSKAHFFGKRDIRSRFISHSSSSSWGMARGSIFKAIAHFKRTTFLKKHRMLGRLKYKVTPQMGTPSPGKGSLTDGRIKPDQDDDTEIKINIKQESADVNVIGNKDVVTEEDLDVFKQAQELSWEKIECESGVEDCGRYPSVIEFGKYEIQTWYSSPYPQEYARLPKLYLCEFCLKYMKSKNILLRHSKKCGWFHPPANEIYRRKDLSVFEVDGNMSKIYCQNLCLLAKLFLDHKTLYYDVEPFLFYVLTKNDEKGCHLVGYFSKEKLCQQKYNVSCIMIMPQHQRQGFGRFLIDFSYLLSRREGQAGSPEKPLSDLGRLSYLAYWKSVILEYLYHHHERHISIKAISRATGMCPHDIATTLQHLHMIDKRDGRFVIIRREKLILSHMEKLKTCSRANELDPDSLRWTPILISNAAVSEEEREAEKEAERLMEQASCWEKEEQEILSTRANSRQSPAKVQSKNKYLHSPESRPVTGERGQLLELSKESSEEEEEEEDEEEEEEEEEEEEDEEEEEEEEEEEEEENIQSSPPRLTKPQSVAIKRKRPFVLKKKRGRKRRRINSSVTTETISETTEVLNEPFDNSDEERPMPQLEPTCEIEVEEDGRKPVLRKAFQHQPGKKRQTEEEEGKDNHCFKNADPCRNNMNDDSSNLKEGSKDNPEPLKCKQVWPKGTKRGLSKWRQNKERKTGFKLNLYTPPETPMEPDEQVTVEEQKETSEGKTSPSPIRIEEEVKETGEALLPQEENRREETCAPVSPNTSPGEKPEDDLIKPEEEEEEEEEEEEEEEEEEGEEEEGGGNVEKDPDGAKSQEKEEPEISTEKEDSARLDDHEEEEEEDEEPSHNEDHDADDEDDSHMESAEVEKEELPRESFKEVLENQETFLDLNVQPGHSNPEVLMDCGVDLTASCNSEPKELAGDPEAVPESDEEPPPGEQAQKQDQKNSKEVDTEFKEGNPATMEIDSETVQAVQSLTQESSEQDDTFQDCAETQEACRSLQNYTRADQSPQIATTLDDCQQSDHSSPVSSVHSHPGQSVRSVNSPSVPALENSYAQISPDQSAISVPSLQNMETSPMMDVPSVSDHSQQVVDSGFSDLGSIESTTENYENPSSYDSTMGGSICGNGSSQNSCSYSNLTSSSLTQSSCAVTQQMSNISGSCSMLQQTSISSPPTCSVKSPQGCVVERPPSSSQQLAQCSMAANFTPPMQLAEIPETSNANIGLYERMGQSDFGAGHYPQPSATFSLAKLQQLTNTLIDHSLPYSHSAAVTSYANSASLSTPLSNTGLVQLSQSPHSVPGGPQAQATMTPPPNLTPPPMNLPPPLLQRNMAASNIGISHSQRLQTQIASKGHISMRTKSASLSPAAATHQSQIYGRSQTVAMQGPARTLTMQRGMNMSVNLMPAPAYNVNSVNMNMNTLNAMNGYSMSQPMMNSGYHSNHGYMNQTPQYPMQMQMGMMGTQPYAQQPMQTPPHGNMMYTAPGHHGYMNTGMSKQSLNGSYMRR
From the text: KAT6B was obtained from SignalChem, catalog ID: K315-381BG

HBO-KAT7 [7] = target: T5, HBO-KAT7 (Homo sapiens, UniProt O95251); experiment: Revised Acetyltransferase Biochemical Assay, KAT7; settings: Table 9 (HBO-KAT7), 1 μM Acetyl coenzyme A
T5 construct: encoding amino acid residues 325 to 611 (Uniprot 095251-1) of human KAT7; made in house; host or cells: E. coli BL21 DE3 RIL
T5 sequence (O95251 with tags, fused parts or gaps): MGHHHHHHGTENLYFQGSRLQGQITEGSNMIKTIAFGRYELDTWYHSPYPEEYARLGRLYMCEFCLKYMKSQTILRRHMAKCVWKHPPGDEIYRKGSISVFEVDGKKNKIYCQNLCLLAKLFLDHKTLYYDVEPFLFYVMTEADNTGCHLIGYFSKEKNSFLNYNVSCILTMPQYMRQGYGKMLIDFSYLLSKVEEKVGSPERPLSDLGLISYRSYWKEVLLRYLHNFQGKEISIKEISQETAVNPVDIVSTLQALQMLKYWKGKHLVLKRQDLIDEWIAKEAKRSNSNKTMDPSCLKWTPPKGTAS

MOF-KAT8 [8] = target: T3, MOF-KAT8; experiment: Acetyltransferase biochemical assay (AlphaScreen), KAT8; settings: Table 4 (MOF-KAT8); 0.4 μM Acetyl coenzyme A, histone H4, 20 nM enzyme
HBO-KAT7 [9] = target: T5, HBO-KAT7; experiment: Acetyltransferase biochemical assay (AlphaScreen), KAT7; settings: Table 3 (HBO-KAT7); 0.4 μM Acetyl coenzyme A, histone H3.1, 40 nM enzyme
[10] = system: histone H3 Lysine 14 acetylation (HBO1 mediated) in U2OS cells; experiment: Histone H3 Lysine 14 Acetylation Biomarker Assay (384-well, U2OS); assay type: cell-based; settings: Homo sapiens, serum free medium, 24 hours incubation
Procedure, shortened: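 U2OS cells in serum-free medium treated with compound 24 h; DMSO and 10 μM reference inhibitor as 0% and 100% controls. Fixed cells immunostained for H3K14ac (AlexaFluor 488) with Hoechst nuclear mask, imaged by high-content analysis; per-cell intensity converted to % inhibition, IC50 by four-parameter logistic fit.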

[11] = system: histone H2A.Z Lysine 7 acetylation (TIP60 mediated) in U2OS cells; experiment: H2A.Z Lysine 7 Acetylation Biomarker Assay (384-well, U2OS); assay type: cell-based; settings: Homo sapiens, serum free medium, 24 hours incubation
Procedure, shortened: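 U2OS cells (3,000/well) were treated with compound for 24 h after a serum-free wash, then fixed. They were stained with anti-H2A.ZK7ac, an AlexaFluor 488 secondary and Hoechst. High-content imaging gave mean nuclear intensity per cell, converted to percent inhibition against on-plate controls, and IC50 came from a four-parameter logistic fit.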

| Structure (SMILES) | IC50 (TIP60-KAT5 [1]) | IC50 (MOZ-KAT6A [2]) | IC50 (MOZ-KAT6A [3]) | IC50 (TIP60-KAT5 [4]) | IC50 [5] | IC50 (MOF-KAT8 [6]; read-out: IC50 (MOF-KAT8), Revised acetyltransferase biochemical assay, 20 nM KAT8, 1 μM AcCoA, 100 nM histone H4, 90 min) | IC50 (QKF-KAT6B) | IC50 (HBO-KAT7 [7]) | IC50 (MOF-KAT8 [8]) | IC50 ([5]; Homo sapiens) | IC50 (MOF-KAT8 [6]) | IC50 (HBO-KAT7 [9]) | IC50 [10] | IC50 [11] |
| --- | --- | --- | --- | --- | --- | --- | --- | --- | --- | --- | --- | --- | --- | --- |
| O=C(NCC(c1ccccc1)c1ncco1)C1=Nc2ccc(F)cc2S(=O)(=O)N1 (single isomer, unassigned) [Example 144] | 1060 nM | 21 nM | 120 nM | 1.65 µM | 104 nM | 46.7 µM | 459 nM | 1390 nM |  |  |  |  |  |  |
| Cn1cc(-c2ccc3c(c2)S(=O)(=O)NC(C(=O)NCC(c2ccccc2)c2ncco2)=N3)cn1 (stereo not drawn) [Example 25, 7-(1-Methyl-1H-pyrazol-4-yl)-N-(2-(oxazol-2-yl)-2-phenylethyl)-2H-benzo[e][1,2,4]thiadiazine-3-carboxamide 1,1-dioxide] | 5910 nM | 64 nM | 51.2 nM | 6.89 µM |  |  | 610 nM | 12000 nM | 78.2 µM | 3820 nM | > 125 µM | 1930 nM |  |  |
| O=C(NCC(c1ccccc1)c1ncco1)C1=Nc2ccc(-c3cn[nH]c3)cc2S(=O)(=O)N1 (stereo not drawn) [Example 26, N-(2-(Oxazol-2-yl)-2-phenylethyl)-7-(1H-pyrazol-4-yl)-2H-benzo[e][1,2, 4]thiadiazine-3-carboxamide 1,1-dioxide] | 5940 nM | 41 nM | 28.7 nM | 1.66 µM |  |  | 120 nM | 5070 nM | 23.7 µM | 1080 nM | 39.9 µM | 1480 nM |  |  |
| CNC(=O)c1ccc2c(c1)S(=O)(=O)NC(C(=O)NCC(c1ccccc1)c1ncco1)=N2 (stereo not drawn) [Example 32, N^7-Methyl-N^3-(2-(oxazol-2-yl)-2-phenylethyl)-2H-benzo[e][1,2,4]thiadiazine-3,7-dicarboxamide 1,1-dioxide] | 5330 nM | 30 nM | 49.8 nM | 5.04 µM |  |  | 155 nM | 356 nM | 74.1 µM | > 10000 nM | > 125 µM | 4640 nM |  |  |
| O=C(NCC(c1ccccc1)c1nccs1)C1=Nc2ccc(Cl)cc2S(=O)(=O)N1 (stereo not drawn) [Example 166] | 714 nM | 7 nM |  |  |  |  | 72 nM | 183 nM |  | 93 nM | 36.8 µM |  | 0.611 µM | 5.35 µM |
| O=C(NCCC1CCCCC1)C1=Nc2ccc(-c3c[nH]nn3)cc2S(=O)(=O)N1 [Example 201] | 43700 nM | 268 nM |  |  |  |  | 5260 nM | 56500 nM |  | > 10000 nM |  |  | > 40 µM | > 40 µM |
| O=C(NCCC1CCCCC1)C1=Nc2ccc(I)cc2S(=O)(=O)N1 [Example 204] | > 125000 nM | 122 nM |  |  |  |  | > 125000 nM | 59500 nM | > 125 µM | > 10000 nM | > 125 µM |  |  | > 40 µM |
| Cc1cc(O)cc(C(CNC(=O)C2=Nc3ccc(Cl)cc3S(=O)(=O)N2)c2ncco2)c1 (stereo not drawn) [Example 221, 7-Chloro-N-(2-(3-hydroxy-5-methylphenyl)-2-(oxazol-2-yl)ethyl)-2H-benzo[e][1,2,4]thiadiazine-3-carboxamide 1,1-dioxide] | 1570 nM | 572 nM |  |  |  |  | 4340 nM | 72 nM |  | > 10000 nM |  |  | 1.66 µM | 6.87 µM |
| Cc1cccc(C(CNC(=O)C2=Nc3ccc(I)cc3S(=O)(=O)N2)c2ncco2)c1 (stereo not drawn) [Example 233, 7-iodo-N-(2-(oxazol-2-yl)-2-(m-tolyl)ethyl)-2H-benzo[e][1,2,4]thiadiazine-3-carboxamide 1,1-dioxide] | 154 nM | 13 nM |  |  |  |  | 254 nM | 14 nM | 6.13 µM |  | 9.25 µM | 38 nM | 3.2 µM | 1.99 µM |
| O=C(NCC(F)(F)c1ccccc1)C1=Nc2ccc(I)cc2S(=O)(=O)N1 [Example 238, N-(2,2-difluoro-2-phenylethyl)-7-iodo-2H-benzo[e][1,2,4]thiadiazine-3-carboxamide 1,1-dioxide] | 1810 nM | 188 nM |  |  |  |  | 5870 nM | 881 nM | 41.4 µM |  | 25.6 µM |  | 13.7 µM |  |
